Legend:
[1] = system: full length SMN2 minigene mRNA containing SMN2 exon 7 (SMN2-A minigene); assay: SMN2 minigene mRNA splicing RT-qPCR assay in cultured cells; type: cell-based, human; conditions: Homo sapiens, HEK293-H; HEK293H cells stably transfected with SMN2-A minigene, 24 hours, 7-point concentration curve; concentration giving 1.5-fold SMN2 full length mRNA vs vehicle; read-out: EC1.5x for production of full length SMN2 mRNA
How it was run: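 HEK293H cells stably carrying the SMN2-A minigene were treated 24 h at 37 °C with a 7-point, 3.16-fold test compound series, in duplicate. Multiplex RT-qPCR measured exon 7-containing minigene FL mRNA, normalized to GAPDH and expressed relative to vehicle; EC1.5x is the concentration giving 1.5-fold FL mRNA.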

[2] = system: Smn protein; assay: Smn protein assay (Smn HTRF) in cultured cells; type: cell-based, human; conditions: Homo sapiens, Fibroblast, GM03813 SMA Type 1 patient fibroblasts, 48 hours, HTRF; for maximal fold induction: 7-point concentration data, relative to vehicle, read-out: maximum fold (Fold) increase of Smn protein; for EC (1.5-fold): concentration producing 1.5 times Smn protein vs DMSO vehicle, read-out: EC1.5x for Smn protein expression
How it was run: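 SMA patient fibroblasts (5,000/well) were exposed to a 7-point, 3.16-fold compound dilution series for 48 hours at 37° C, in triplicate. Lysates were read by HTRF with anti-SMN d2/kryptate at 665/620 nm. Blank-corrected signal was expressed as fold over DMSO vehicle, giving the EC1.5x and the maximum fold increase.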

| melting point [°C] | Structure (SMILES) | EC (1.5-fold) [1] [µM] | maximal fold induction [2] | EC (1.5-fold) [2] [µM] |
| --- | --- | --- | --- | --- |
| 128 to 132 | COc1ccc(-c2cc(=O)c3cc(N4CCNCC4)ccc3o2)cc1C(F)(F)F [Cpd 69, 2-[4-methoxy-3-(trifluoromethyl)phenyl]-6-(piperazin-1-yl)-4H-chromen-4-one] | 0.3 to 1 | 1.35 to 1.5 |  |
| 142 to 146 | COc1ccc(-c2cc(=O)c3cc(N4CCN[C@@H](C)C4)ccc3o2)cc1OC(F)(F)F [Cpd 70, 2-[4-methoxy-3-(trifluoromethoxy)phenyl]-6-[(3S)-3-methylpiperazin-1-yl]-4H-chromen-4-one] | 0.3 to 1 | 1.2 to 1.35 |  |

Further lines, the compound ahead of its results:

| Structure (SMILES) | melting point [°C] | EC (1.5-fold) [1] [µM] | maximal fold induction [2] | EC (1.5-fold) [2] [µM] |
| --- | --- | --- | --- | --- |
| O=c1cc(-c2ccccn2)oc2ccc(N3CCNCC3)cc12 [Cpd 7, 6-(piperazin-1-yl)-2-(pyridin-2-yl)-4H-chromen-4-one] | 170 to 172 | 0.3 to 1 | 1.5 to 1.65 | 3 to 10 |
| CCOc1ccc(-c2cc(=O)c3cc(N4CCN[C@@H](C)C4)ccc3o2)cc1 [Cpd 42, 2-(4-ethoxyphenyl)-6-[(3S)-3-methylpiperazin-1-yl]-4H-chromen-4-one] | 93 to 94 | 0.3 to 1 | 1.2 to 1.35 |  |
| COc1ccc(-c2cc(=O)c3cc(N4C[C@@H](C)N[C@@H](C)C4)ccc3o2)cc1Cl [Cpd 60, 2-(3-chloro-4-methoxyphenyl)-6-[(3R,5S)-3,5-dimethylpiperazin-1-yl]-4H-chromen-4-one] | 176 to 178 | 0.1 to 0.3 | > 1.65 | 1 to 3 |

— patent US9914722B2, “Compounds for treating spinal muscular atrophy” (PTC Therapeutics Inc., priority 2012, dated 2018)
